Laboratory results taken from patent publication US20090197957A1, “Methods and compositions for the treatment of pain” (Nuon Therapeutics, Inc., priority 2005, published 2009).
“And” between values parts separate entries of the source, which are not always exact repeats. Identical values can stand only once.

Assays:
[1] = tested on: acetic acid-induced writhing; experiment: Analgesia, acetic acid writhing in mice (Example 3); format: in vivo, mouse; details: 100 mg/kg PO
Method: 3-Hydroxyanthranilic acid was evaluated for possible analgesic activity in mouse acetic acid-induced pain response assay.
3-Hydroxyanthranilic acid was purchased from Sigma (USA) by MDS Pharma Services-Taiwan Ltd. and administered orally at the doses of 400, 200 and 100 mg/kg for analgesia, acetic acid-induced writhing assay. 2% Tween 80 was used as the vehicle.
Male CD-1 (Crl.) mice provided by BioLasco Taiwan (under Charles River Laboratories Technology Licensee) were used. Space allocation for 10 animals was 29×18×13 cm. All animals were maintained in a controlled temperature (23° C.-24° C.) and humidity (60%-70%) environment with 12 hours light dark cycles for at least one week in MDS Pharma Services—Taiwan Laboratory prior to use. Free access to standard lab chow for Mice (LabDiet Rodent Diet, PMI Nutrition International, USA) and tap water was granted. All aspects of this work including housing, experimentation and disposal of animals were performed in general accordance with the Guide for the Care and Use of Laboratory Animals (National Academy Press, Washington, D.C., 1996).
Test substance was administered orally to groups of 5 CD-1 (Crl.) derived male or female mice weighing 24±2 g, 2 hour before injection of acetic acid (0.5%, 20 ml/kg IP). Reduction in the number of writhes by 50 percent or more (≧50%) per group of animals observed during the 5 to 10 minute period after acetic acid administration, relative to a vehicle-treated control group, indicates possible analgesic activity.
Test substance was administered orally to groups of 5 mice 1 hour before injection of 0.5% Acetic Acid (20 ml/kg IP). The number of writhing per group of animals observed during the 5 to 10 minute period after acetic acid challenge was observed. Reduction in the number of writhing by 50 percent or more (≧50%) relative to the vehicle-treated control group indicates possible analgesic activity.

[2] = short-term use following coronary artery by-pass surgery; cited from earlier work
[3] = tested on: acetic acid-induced writhing; experiment: Analgesia, acetic acid writhing in mice (Assay #503900, Example 1); format: in vivo, mouse; details: 30 mg/kg PO, 60 minutes before acetic acid
[4] = similar adenoma prevention trial; cited from earlier work
[5] = patients in a colorectal adenoma prevention trial; cited from earlier work

With CC(=O)Oc1ccccc1C(=O)O [Aspirin] the “No. of Writhing Average” value ([1]; group of 5 mice) was 5, the “% Inhibition” value ([1]; relative to vehicle control) was “(62) %” and the “No. of Writhing Individual” value ([1]; single mice) was 0 and 8 and 3 and 7 and 9.

In the case of Cc1onc(-c2ccccc2)c1-c1ccc(S(N)(=O)=O)cc1 [valdecoxib], the “incidence of cardiovascular events” value [2] is listed as “increased incidence”.

In the case of CC(C)Cc1ccc(C(C)C(=O)O)cc1 (stereo not shown) [Ibuprofen], the “No. of Writhing Average” value ([3]; group of 5 mice) is reported as 8, the “% Inhibition” value ([3]; relative to vehicle control) is reported as “(53) %” and the “No. of Writhing Individual” value ([3]; single mice) is reported as 6 and 8 (2×) and 10 (2×).

For Cc1ccc(-c2cc(C(F)(F)F)nn2-c2ccc(S(N)(=O)=O)cc2)cc1 [celecoxib], the “risk of adverse cardiovascular events” value [4] is given as “triple the risk”.

In the case of CS(=O)(=O)c1ccc(C2=C(c3ccccc3)C(=O)OC2)cc1 [Rofecoxib, rofecoxib], the “risk of heart attacks or strokes” value [5] is listed as “double the risk”.

In the case of CCC(=O)NS(=O)(=O)c1ccc(-c2c(-c3ccccc3)noc2C)cc1 [parecoxib], the “incidence of cardiovascular events” value [2] is listed as “increased incidence”.
